{"source": "patent US10758609B2", "about": "“Cross-reactive T-cell epitopes of HIV, SIV, and FIV for vaccines in humans and cats” (priority 2015, dated 2020)", "key": {"[1]": {"tested_on": "CD8^+ T cells from HIV^+ subjects", "assay": "FACS-based intracellular staining (ICS) for cytolysin (perforin) and cytotoxins (GrzA, GrzB) in CD8+ T cells", "conditions": "HIV-1 epitope peptide; HIV+ human subjects; threshold ≥0.2%", "procedure": "The overlapping peptide pools of FIV and HIV-1 structural and enzyme proteins were used to stimulate the […] (PBMC) and the T cells from HIV^+ subjects as previously described for epitope mapping of HIV-1 and FIV p24 and reverse transcriptase (RT) (Sanou et al., 2013; Roff et al., 2015). The individual peptides in those peptide pools with positive responses to either interferon-γ (IFNγ) production and/or T-cell proliferation were determined with IFNγ ELISpot analysis and CFSE-based CD3^+CD4^+ and CD3^+CD8^+ T-cell proliferation analyses followed by the FACS-based intracellular staining (ICS) for cytolysin (perforin) and cytotoxin (granzyme A [GrzA] and GrzB) (Sanou et al., 2013; Roff et al., 2015). Besides viral p24 and RT proteins, the identical approach was used to identify anti-HIV/FIV T-cell epitopes on viral matrix (MA), nucleocapsid (NC), protease (PR), RNAase, integrase (IN), surface envelope (SU Env), and transmembrane envelope (TM Env) (FIG. 12).\nSince our goal is to develop HIV vaccine for human use, the HIV peptides (Table 10) counterpart of the cross-reactive FIV peptides shown in Table 9 were tested with PBMC and T cells from HIV^+ subjects. The immune functions analyzed were human IFNγ production by ELISpot, cytolysin/cytotoxin production by ICS, and CFSE-based proliferation of CD3^+CD4^+ and CD3^+CD8^+ T cells from HIV^+ subjects (Table 10, the first set of results). In addition, the Los Alamos National Laboratories (LANL) database was used to identify the HLA allele(s) of the HIV epitope sequence with CTL activity that can exist within the sequence of the conserved counterpart HIV peptide (Table 9, LANL CTL). The bold HLA class-I supertypes and the bold 2-digit alleles are those on the “Optimal CD8^+ CTL Epitopes” list and those without bold are alleles for potential CTL epitope. […] The HLA class II such as HLA-DRB1 has yet to be fully classified into supertypes, and therefore the 4-digit resolution nomenclatures for the HLA-DRB1 alleles are shown.\nThe threshold for positive IFNγ and IL2 ELISpot responses is ≥50 spot-forming units (SFU) per 10^6 PBMC. The threshold for CFSE-based CD4^+ and CD8^+ T-cell proliferation is ≥2% CD4^+ T-cell CFSE^low or CD8^+ T-cell CFSE^low. The threshold of FACS-based intracellular cytokine staining (ICS) is ≥0.2%. […] The nine FIV peptides in black were used in the current MAP vaccine trial, whereas the 13 peptides in blue were not used. […] The MAPs and their corresponding peptide(s) were also tested for their ability to enhance or suppress in vitro FIV infection of feline PBMC (E/S of peptides and E/S of MAP).\nThe counterpart HIV-1 peptides of the FIV peptides were also tested for immunogenicity using PBMC and T cells from HIV^+ human subjects. […] The HRT7-1 and HRT7-2 were also tested with cells from HIV^+ subjects on ART. The threshold for positive IFNγ ELISpot response is ≥75 spot-forming units (SFU) per 10^6 PBMC. The threshold for CFSE-based CD4^+ (CD4^+ T) and CD8^+ (CD8^+ T) T-cell proliferation is ≥2% CD4^+ T-cell CFSE^low or CD8^+ T-cell CFSE^low. The threshold of intracellular cytokine staining (ICS) of FACS-based cytolysin (perforin) and cytotoxins (granzymes A and B) in CD4^+ T cells (CyCD4) and CD8^+ T cells (CyCD8) is ≥0.2%. […] The nine HIV-1 peptides in black are the counterpart FIV peptides used in the current MAP vaccine trial, whereas the 13 peptides in blue were not."}, "[2]": {"tested_on": "PBMC from FIV-vaccinated cats", "assay": "Feline IFNγ ELISpot of PBMC from vaccinated cats", "assay_type": "cell-based, cat", "procedure": "(§1) IFNγ and IL2 ELISpot analyses were performed using feline IFNγ ELISpot and feline IL2 ELISpot kits (R&D Systems, Cat# SEL764 and SEL1890) as described. The threshold is defined as ≥50 spot forming units (SFU) per 1×10^6 PBMC when counted with MVS ELISpot Reader (MVS Pacific, LLC). Each result is an average of the duplicate samples after subtraction of the average value of the media controls.\n(§2) Concurrently, the overlapping peptide pools of FIV structural/enzyme proteins were used to stimulate PBMC and T cells from FIV-vaccinated cats. These cats were vaccinated with prototype dual-subtype FIV vaccine which was the prototype to our commercial FIV vaccine (Coleman et al., 2014). The feline assays (Example 1) equivalent to those of human assays (Sanou et al., 2013; Roff et al., 2015) were used except for ICS analysis. In place of ICS for cytolysin/cytotoxins, IL2 ELISpot analysis was performed. […] The results for FIV-vaccinated cats included IFNγ and IL2 productions and CD3^+CD4+ and CD3^+CD8^+ T-cell proliferation (Table 9, the second set of results).\n(§3) The feline IFNγ and L2 ELISpot analyses of PBMC to FIV MAPs and peptides were performed as previously described (Abbott et al. (2012)) using feline IFNγ modular kit (R&D Systems, Minneapolis, Minn.) and feline IL2 modular kit (R&D Systems). All results shown in the figures (FIGS. 8A-1, 8B-1, 8A-2, 8B-2, 8A-3, 8B-3) are after subtracting the average value of the results from all control cats.\n(§4) The second parameter evaluated was the ability of the peripheral blood mononuclear cells (PBMC) from vaccinated and control cats to produce IL2 and interferon-γ (IFNγ) proteins in responses to FIV MAPs and peptides (FIGS. 8A-1, 8A-2, 8A-3, 8B-1, 8B-2, 8B-3) using feline IL2 and IFNγ ELISpot assays (Aranyos et al. (2016); Abbott et al. (2012)). IL2 enhances the proliferation of FIV-specific CD4^+ T cells and CD8^+ T cells. IFNγ is known enhance the FIV-specific CTL activities in vaccinated cats (Abbas et al. (2015))."}, "[3]": {"tested_on": "PBMC from FIV-vaccinated cats", "assay": "Feline IL2 ELISpot of PBMC from vaccinated cats", "assay_type": "cell-based, cat", "procedure": "as §1, §2, §3, §4"}, "[4]": {"tested_on": "feline CD3^+CD4^+ T cells", "assay": "CFSE-based feline CD3+CD4+ T-cell proliferation", "parameters": "species or system cat", "conditions": "FIV-vaccinated cats; for CDC4^+ T (T-cell proliferation), frequency of responders: FIV peptides", "procedure": "(§5) Carboxyfluorescein diacetate succinimide ester (CFSE)-proliferation was performed according to the manufacturer's protocol (Invitrogen, Grand Island, N.Y.) and processed using a previously described modification. The modification consisted of 2.5×10^5 CFSE-labeled feline PBMC stimulated for 5 days (37° C., 5% CO2) with 4 μg/mL peptide in culture media (RPMI medium 25 µg/mL gentamycin, and 10% heat-inactivated fetal bovine serum (FBS)). Peptide pools consisted of 3-5 overlapping peptides of 4 μg/mL each. The antibodies used for flow cytometry based proliferation analysis consisted of murine anti-feline (Fe) CD3 monoclonal antibody (MAb clone kindly provided by Drs. Yorihiro Nishimura and Takayuki Miyazawa; described in [32]) combined with secondary goat anti-mouse IgG3-APC/CY7 MAb (SouthernBiotech, Birmingham, Ala.; Cat#1100-19); and murine anti-FeCD4-PE MAb (SouthernBiotech, Cat#8130-09); and murine anti-FeCD8 MAb (MAb clone kindly provided by Dr. Nazareth Gengozian, described in [33]) with secondary goat anti-mouse IgG2a-PE/CY7 (Southern Biotech, Cat#1080-17). The murine anti-B220-APC MAb for detecting feline B cells (SouthernBiotech, Cat#1665-11) and previously described MAbs for CFSE were used for FACS phenotyping. Both FACS phenotyping and CFSE-proliferation analyses were performed with BD LSRII and FACSDiva™ Software (BD Biosciences, San Jose, Calif.). The final value for each sample was derived after subtraction of the average value of the media controls using a positive threshold of ≥1 CFSE^low.\nas §2\n(§6) Carboxyfluorescein diacetate succinimide ester (CFSE)-proliferation analysis was according to the manufacturer's protocol (Invitrogen-Fisher, Carlsbad, Calif.) and processed as previously described (Roff et al. (2015)) using the following modifications: anti-feline CD3 antibody ((clone NZM1), a generous gift from T. Miyazawa (Univ. of Tokyo, Japan)) in combination with APC-conjugated anti-mouse IgG3 (Southern Biotech, Birmingham, Ala.), PE-conjugated anti-feline CD4 antibody (Southern Biotech), and anti-feline CD8 antibody (gift from N. Gengozian, University of Tennessee (Gengozian et al. (1997))) in combination with PE/Cy7-conjugated anti-mouse IgG2b (Southern Biotech) to detect the proliferation of feline CD3^+CD4+ T cells and feline […]. All results shown in the figures (FIGS. 7A-1, 7B-1, 7A-2, 7B-2, 7A-3, 7B-3) are after subtracting the average value of each results from all control cats. The threshold of CFSE proliferation is ≥0.5 CFSE^low. […]"}, "[5]": {"tested_on": "feline CD3^+CD8^+ T cells", "assay": "CFSE-based feline CD3+CD8+ T-cell proliferation", "parameters": "species or system cat", "conditions": "for CD8^+ T (T-cell proliferation), frequency of responders: FIV peptides", "procedure": "as §5, §2, §6"}, "[6]": {"conditions": "FIV epitope peptide, FIV-vaccinated cats"}, "[7]": {"conditions": "FIV peptides, FIV-vaccinated cats (prototype dual-subtype vaccine)"}, "[8]": {"conditions": "cats of Group 1, MAP Vaccine Trial 1 (FIG. 3)"}}}
{"compound": "CC[C@H](C)[C@H](NC(=O)[C@H](CCCCN)NC(=O)[C@@H](NC(=O)[C@@H](NC(=O)[C@@H](NC(=O)[C@H](CC(C)C)NC(=O)[C@@H]1CCCN1C(=O)[C@H](CCCNC(=N)N)NC(=O)[C@H](CCC(N)=O)NC(=O)[C@H](Cc1c[nH]c2ccccc12)NC(=O)[C@H](CC(C)C)NC(=O)[C@@H](N)[C@@H](C)O)C(C)C)[C@@H](C)O)[C@@H](C)CC)C(=O)NCC(=O)NCC(=O)O", "note": "[HPR1]", "values": [{"measurement": "CyCD8: CD8+ T-cell cytolysin/cytotoxins (perforin, GrzA & B), frequency of responders", "setting": "[1]", "value": "− (0%-1.4% (−))"}]}
{"compound": "CC[C@H](C)[C@H](N)C(=O)N1CCC[C@H]1C(=O)N[C@H](C(=O)NCC(=O)N[C@@H](CCC(=O)O)C(=O)N[C@H](C(=O)N[C@@H](Cc1ccc(O)cc1)C(=O)N[C@@H](CCCCN)C(=O)N[C@@H](CCCNC(=N)N)C(=O)N[C@@H](Cc1c[nH]c2ccccc12)C(=O)N[C@H](C(=O)N[C@H](C(=O)N[C@@H](CC(C)C)C(=O)NCC(=O)O)[C@@H](C)CC)[C@@H](C)CC)[C@@H](C)CC)C(C)C", "note": "[Hp9-3 (10-3)]", "values": [{"measurement": "CyCD8: CD8+ T-cell cytolysin/cytotoxins (perforin, GrzA & B), frequency of responders", "setting": "[1]", "value": "+++ (40.1%-54% (+++))"}]}
{"compound": "AAAPVNQMQQAVMPSA [FNC2]", "values": [{"measurement": "IFNγ, frequency of responders", "setting": "[2]; [6]", "value": "++++ (>54% (++++))"}, {"measurement": "IFNγ, frequency of responders", "setting": "[2]; [7]", "value": "++++ (>54% (++++))"}, {"measurement": "IL2, frequency of responders", "setting": "[3]; FIV epitope peptide", "value": "++++ (>54% (++++))"}, {"measurement": "IL2, frequency of responders", "setting": "[3]; FIV peptides", "value": "++++ (>54% (++++))"}, {"measurement": "CD4, frequency of responders", "setting": "[4]; FIV epitope peptide", "value": "— (0%-1.4% (—))"}, {"measurement": "CDC4^+ T (T-cell proliferation), frequency of responders", "setting": "[4]", "value": "— (0%-1.4%(—))"}, {"measurement": "CD8, frequency of responders", "setting": "[5]; [6]", "value": "++++ (>54% (++++))"}, {"measurement": "CD8^+ T (T-cell proliferation), frequency of responders", "setting": "[5]; FIV-vaccinated cats", "value": "++++ (>54% (++++))"}]}
{"compound": "AEVKLYLKQSLSIANA [Fp14-3/4, overlapping peptide of MAP3]", "values": [{"measurement": "IFNγ, frequency of responders", "setting": "[2]; [7]", "value": "+++ (40.1%-54% (+++))"}, {"measurement": "IFNγ production", "setting": "[2]; [8]", "value": 96, "unit": "SFU/10^6 PBMC"}, {"measurement": "IL2, frequency of responders", "setting": "[3]; FIV peptides", "value": "++++ (>54% (++++))"}, {"measurement": "CDC4^+ T (T-cell proliferation), frequency of responders", "setting": "[4]", "value": "+++ (40.1%-54% (+++))"}, {"measurement": "CD8^+ T (T-cell proliferation), frequency of responders", "setting": "[5]; FIV-vaccinated cats", "value": "+++ (40.1%-54% (+++))"}, {"measurement": "% CD8+ T-cell CFSE^low over % CD4+ T-cell CFSE^low ratio (CD8/CD4 response ratio)", "setting": "[5]; [8]", "value": 4.8}]}
